Assay results published in article PMC11404609, “Gut microbiota-mediated C-sulfonate metabolism impairs the bioavailability and anti-cholestatic efficacy of andrographolide” (Gut Microbes, 2024).
Where “and” joins values, the source holds several entries; their conditions need not be identical. Equal values may be shown once.

Tests used:
Type in all cases: in vivo
[1] = In-situ single-pass intestinal perfusion of AP; conditions: rats, AP 20 μM co-perfused with Na2SO4 40 μM vs AP alone
Protocol: The rat intestinal perfusion experiment was conducted based on previous literature reports^6, 7. The experimental animals were divided into two groups: Control and SO4^2- groups. Rats were anaesthetised via the intraperitoneal injection of 50% urethane at a dose of 2.4 mL/kg. Two segments of the intestine, specifically the duodenum and jejunum, each measuring 5-10 cm in length, were cannulated simultaneously. The primary tube was affixed to a syringe controlled by an infusion pump (Model PHD2000 Harvard Apparatus, Cambridge, Massachusetts). The inlet cannula was insulated and maintained in a constant temperature of 37°C in circulating water bath to ensure the perfusate’s thermal stability. Following the surgical procedure, the two segments of Control group were perfused with 20 μM AP, and the two segments of SO4^2- group were co-perfused with AP (20 μM) and Na2SO4 (40 μM). The perfusion was conducted at the flow rate of 0.17 mL/min and perfusate samples were collected every 15 min (15, 30, 45, 60, 75, and 90 min). The concentrations of AP and APM in the perfusate at the outlet were determined through UPLC-MS/MS analysis.

[2] = Plasma pharmacokinetics of AP after oral administration in rats; conditions: for AUC(0-t) / Cmax / Tmax / half-life / AUC(0-inf): rat, plasma, po, 120 mg/kg, mean ± SD; for AUC(0-t) / Cmax / Tmax / half-life / AUC(0-inf) / Fr (%) relative oral bioavailability: AP 120 mg/kg oral gavage
Protocol: Control and ABX rats were orally administered a single dose of AP at 120 mg/kg. Blood samples (500 μL) were collected at predetermined time intervals (0, 5, 10, 20, 30, 40, 60, 90, 120, 180, 240, 360, and 480 min). In some cases, APS reductase inhibitor bromocriptine mesylate (20 mg/kg, p.o.) or Na2SO4 (200 mg/kg, p.o.) was given to rats 1 week before AP treatment.
(§1) The pharmacokinetic parameters of AP including peak time (Tmax), maximum concentration (Cmax), area under the curve from zero time to the last time point measured (AUC0-t), area under the curve from zero time to infinity (AUC0-∞), and elimination half-life (t1/2) were estimated using DAS 2.0 software (Shanghai, China). The relative oral bioavailability (Fr) of AP was calculated by the following equation: Fr(%)=AUC0−∞of ABX/Inhibitor/SO42−/D.piger/AUC0−∞of Control×100%
(§2) An ACQUITY^TM UPLC-MS/MS system equipped with an ACQUITY^TM UPLC BEH C18 Column (50 × 2.1 mm I.D., 1.7 μm, Waters, Milford, MA, USA) was utilized for the quantification of AP and APM as previously described.[47] Briefly, the detection samples (50 μL) were mixed with 50 μL of IS (50 ng/mL). AP and APM were extracted by 400 μL cold methanol. Supernatants were dried under nitrogen stream. Then, the residue was dissolved with 50% methanol in water, centrifuged for 30 min at 13,000 rpm, and 10 µL of the supernatant was subjected to UPLC-MS/MS analysis. The mobile phases consisted of eluent A (water) and eluent B (methanol) with a gradient elution as follows: 0–0.8 min, 10% B; 0.8–1.2 min, 10–90% B; 1.2–5.0 min, 90% B; 5.0–5.5 min, 90–10% B; 5.5–7.0 min, 10% B. The flow rate was 0.3 mL/min and the injection volume of all samples was 10 μL. The quantification of AP, APM and IS was performed by UPLC-MS/MS using an MRM method with the transitions of m/z 349.1→m/z 287.2 for AP, m/z 413.2→m/z 287.2 for APM, m/z 269→m/z 133 for IS.

[3] = Plasma pharmacokinetics of AP after oral administration in mice; conditions: for Fr (%) relative oral bioavailability / AUC(0-inf) / AUC(0-t) / Cmax / Tmax / half-life: AP 100 mg/kg oral gavage; for AUC(0-inf) / AUC(0-t) / Cmax / Tmax / half-life: mouse, plasma, po, 100 mg/kg, mean ± SD
Protocol: Mice were orally administered APS reductase inhibitor bromocriptine mesylate (20 mg/kg, p.o.) or Na2SO4 (200 mg/kg, p.o.) or saline solution 1 week prior to AP treatment (a single dose of AP at 100 mg/kg, p.o.). Blood samples (50 μL) were collected at predetermined time points (0, 10, 20, 40, 60, 90, 120, 240, 360 min). In specific cases, mice were orally administrated with D. piger suspension (0.2 mL, 1 × 10^9 CFU/mL) or saline solution by oral gavage for 2 weeks before AP treatment (a single dose of AP at 100 mg/kg, p.o.).
as §1, §2

[4] = SD, rats, Control group (Table 1), n = 4
[5] = Sprague-Dawley (SD), rats, Control group (Table 2), n = 4
[6] = Sprague-Dawley (SD), rats, Inhibitor group (bromocriptine mesylate 20 mg/kg p.o. 1 week before), n = 4
[7] = Sprague-Dawley (SD), rats, SO4^2- group (Na2SO4 200 mg/kg p.o. 1 week before), n = 5
[8] = Sprague-Dawley, rats, Control group (Table 2), n = 4
[9] = Sprague-Dawley, rats, Inhibitor group (bromocriptine mesylate 20 mg/kg p.o. 1 week before), n = 4
[10] = Sprague-Dawley, rats, SO4^2- group (Na2SO4 200 mg/kg p.o. 1 week before), n = 5
[11] = mice, Control group (Table 3), n = 10
[12] = mice, Control group (Table 4), n = 12
[13] = mice, D. piger group (D. piger suspension by gavage 2 weeks before), n = 12
[14] = mice, Inhibitor group (bromocriptine mesylate 20 mg/kg p.o. 1 week before), n = 10
[15] = mice, SO4^2- group (Na2SO4 200 mg/kg p.o. 1 week before), n = 10

**Q.** Which results are given for `C=C1CC[C@@H]2[C@](C)(CO)[C@H](O)CC[C@@]2(C)[C@@H]1C/C=C1/C(=O)OC[C@H]1O` [AP, Andrographolide]?
**A.** AP C-sulfonate metabolism [1]: substantial increase; enhancement in the relative oral bioavailability of AP ([2]; ABX-treated rats vs Control): 70.11% and 70%; AUC(0-t) ([2]; SD, rats, ABX group, n = 4): 4430 ng·h/mL; Cmax ([2]; SD, rats, ABX group, n = 4): 1330 ± 250 ng/mL; Tmax ([2]; SD, rats, ABX group, n = 4): 0.708 h; half-life ([2]; SD, rats, ABX group, n = 4): 2.31 ± 0.734 h; AUC(0-t) [2, 4]: 2360 ng·h/mL; Cmax [2, 4]: 690 ± 190 ng/mL; Tmax [2, 4]: 0.833 h; half-life [2, 4]: 3.07 ± 0.928 h; AUC(0-inf) [2, 5]: 3690 ng·h/mL; AUC(0-t) [2, 5]: 3440 ng·h/mL; AUC(0-inf) [2, 6]: 8020 ng·h/mL; AUC(0-t) [2, 6]: 7520 ng·h/mL; AUC(0-inf) [2, 7]: 1870 ng·h/mL; AUC(0-t) [2, 7]: 1360 ng·h/mL; half-life [2, 7]: 4.38 ± 3.23 h; AUC(0-inf) ([2]; Sprague-Dawley, rats, ABX group, n = 4): 5110 ng·h/mL; AUC(0-inf) ([2]; Sprague-Dawley, rats, Control group (Table 1), n = 4): 3000 ng·h/mL; Cmax [2, 8]: 1420 ± 710 ng/mL; Tmax [2, 8]: 0.5 h; half-life [2, 8]: 2.04 ± 0.397 h; Cmax [2, 9]: 2750 ± 710 ng/mL; Tmax [2, 9]: 0.583 h; half-life [2, 9]: 1.82 ± 0.589 h; Cmax [2, 10]: 490 ± 190 ng/mL; Tmax [2, 10]: 0.533 h; Fr (%) relative oral bioavailability ([2]; rats, ABX group vs Control (AUC0-∞ ratio)): 170.11%; Fr (%) relative oral bioavailability ([2]; rats, Inhibitor group vs Control (AUC0-∞ ratio)): 217.24%; Fr (%) relative oral bioavailability ([2]; rats, SO4^2- group vs Control (AUC0-∞ ratio)): 50.70%; increase in AP bioavailability ([2]; rats, inhibition of APS reductase by bromocriptine mesylate): 117.24% and 117%; reduction in AP bioavailability ([2]; rats, treatment of Na2SO4): 49.30%; reduction in AP bioavailability ([3]; mice colonized with D. piger): 60.11%; Fr (%) relative oral bioavailability ([3]; mice, D. piger group vs Control (AUC0-∞ ratio)): 39.89%; Fr (%) relative oral bioavailability ([3]; mice, Inhibitor group vs Control (AUC0-∞ ratio)): 147.48%; Fr (%) relative oral bioavailability ([3]; mice, SO4^2- group vs Control (AUC0-∞ ratio)): 29.42%; increase in AP bioavailability ([3]; mice, inhibition of APS reductase by bromocriptine mesylate): 47.48%; reduction in AP bioavailability ([3]; mice, treatment of Na2SO4): 70.58%; AUC(0-inf) [3, 11]: 772 ng·h/mL; AUC(0-t) [3, 11]: 646 ng·h/mL; Cmax [3, 11]: 500 ± 330 ng/mL; Tmax [3, 11]: 0.533 h; half-life [3, 11]: 2.43 ± 1.12 h; AUC(0-inf) [3, 12]: 1030 ng·h/mL; AUC(0-t) [3, 12]: 909 ng·h/mL; Cmax [3, 12]: 760 ± 440 ng/mL; Tmax [3, 12]: 0.695 h; half-life [3, 12]: 2.27 ± 1.09 h; AUC(0-inf) [3, 13]: 411 ng·h/mL; AUC(0-t) [3, 13]: 374 ng·h/mL; Cmax [3, 13]: 360 ± 280 ng/mL; Tmax [3, 13]: 0.583 h; half-life [3, 13]: 1.29 ± 0.643 h; AUC(0-inf) [3, 14]: 1140 ng·h/mL; AUC(0-t) [3, 14]: 906 ng·h/mL; Cmax [3, 14]: 970 ± 370 ng/mL; Tmax [3, 14]: 0.45 h; half-life [3, 14]: 2.43 ± 1.44 h; AUC(0-inf) [3, 15]: 227 ng·h/mL; AUC(0-t) [3, 15]: 199 ng·h/mL; Cmax [3, 15]: 142 ± 30 ng/mL; Tmax [3, 15]: 0.283 h; half-life [3, 15]: 2.22 ± 1.74 h
